Laboratory results published in ChEMBL document CHEMBL1156427, “Hepatitis C virus NS5A is a direct substrate of casein kinase I-alpha, a cellular kinase identified by inhibitor affinity chromatography using specific NS5A hyperphosphorylation inhibitors” (J Biol Chem, 2007).
pIC50: −log10 of the molar value.

Tests used:
[1] = molecular target: Casein kinase I isoform alpha (Homo sapiens, UniProt P48729); assay: Inhibition of human CKIalpha
[2] = molecular target: Mitogen-activated protein kinase 9 (Homo sapiens, UniProt P45984); assay: Inhibition of human JNK2
MAP kinase p38 = MAP kinase p38 (Homo sapiens, UniProt O15264+Q15759+Q16539+P53778); assay: Inhibition of human p38 MAPK; assay type: protein assay
[3] = Inhibition of human PKA
[4] = molecular target: Casein kinase I isoform delta (Homo sapiens, UniProt P48730); assay: Inhibition of human CKIdelta
[5] = molecular target: Casein kinase II subunit alpha (Homo sapiens, UniProt P68400); assay: Inhibition of human CK2
[6] = molecular target: Mitogen-activated protein kinase 8 (Homo sapiens, UniProt P45983); assay: Inhibition of human JNK1
[7] = molecular target: Ribosomal protein S6 kinase alpha-3 (Homo sapiens, UniProt P51812); assay: Inhibition of human RSK2
Ribosomal protein S6 kinase alpha-3, sequence (P51812 whole entry): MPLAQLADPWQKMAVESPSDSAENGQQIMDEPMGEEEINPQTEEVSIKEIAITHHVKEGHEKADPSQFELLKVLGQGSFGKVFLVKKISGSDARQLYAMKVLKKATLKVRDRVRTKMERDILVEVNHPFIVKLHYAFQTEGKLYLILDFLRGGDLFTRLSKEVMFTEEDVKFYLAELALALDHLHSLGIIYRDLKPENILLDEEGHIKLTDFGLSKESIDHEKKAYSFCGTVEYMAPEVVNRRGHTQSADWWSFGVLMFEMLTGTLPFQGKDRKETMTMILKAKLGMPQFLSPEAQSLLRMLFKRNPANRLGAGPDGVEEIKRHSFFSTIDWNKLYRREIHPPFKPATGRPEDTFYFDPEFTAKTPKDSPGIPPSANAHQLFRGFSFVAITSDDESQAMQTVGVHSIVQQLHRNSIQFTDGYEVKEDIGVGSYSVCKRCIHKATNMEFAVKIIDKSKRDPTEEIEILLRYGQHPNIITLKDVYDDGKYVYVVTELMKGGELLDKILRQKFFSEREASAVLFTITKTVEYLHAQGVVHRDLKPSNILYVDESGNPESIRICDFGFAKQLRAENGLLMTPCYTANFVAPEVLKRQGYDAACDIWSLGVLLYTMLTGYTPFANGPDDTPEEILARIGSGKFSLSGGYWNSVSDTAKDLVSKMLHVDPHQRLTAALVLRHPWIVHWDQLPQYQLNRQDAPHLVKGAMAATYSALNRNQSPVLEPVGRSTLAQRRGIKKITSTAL

Casein kinase I isoform delta, sequence (P48730 whole entry, canonical isoform): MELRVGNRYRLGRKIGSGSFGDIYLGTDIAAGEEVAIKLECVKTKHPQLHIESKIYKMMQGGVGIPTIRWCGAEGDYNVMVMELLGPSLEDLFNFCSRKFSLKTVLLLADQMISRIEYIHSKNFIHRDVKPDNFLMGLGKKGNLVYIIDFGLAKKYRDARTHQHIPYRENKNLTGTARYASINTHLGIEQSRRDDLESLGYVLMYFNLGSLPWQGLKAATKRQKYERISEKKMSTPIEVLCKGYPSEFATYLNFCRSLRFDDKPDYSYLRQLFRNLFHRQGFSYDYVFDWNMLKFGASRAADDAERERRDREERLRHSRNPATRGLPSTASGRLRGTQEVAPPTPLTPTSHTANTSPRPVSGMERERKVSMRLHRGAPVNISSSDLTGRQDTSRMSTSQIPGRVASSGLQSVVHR
Mitogen-activated protein kinase 9, sequence (P45984 whole entry): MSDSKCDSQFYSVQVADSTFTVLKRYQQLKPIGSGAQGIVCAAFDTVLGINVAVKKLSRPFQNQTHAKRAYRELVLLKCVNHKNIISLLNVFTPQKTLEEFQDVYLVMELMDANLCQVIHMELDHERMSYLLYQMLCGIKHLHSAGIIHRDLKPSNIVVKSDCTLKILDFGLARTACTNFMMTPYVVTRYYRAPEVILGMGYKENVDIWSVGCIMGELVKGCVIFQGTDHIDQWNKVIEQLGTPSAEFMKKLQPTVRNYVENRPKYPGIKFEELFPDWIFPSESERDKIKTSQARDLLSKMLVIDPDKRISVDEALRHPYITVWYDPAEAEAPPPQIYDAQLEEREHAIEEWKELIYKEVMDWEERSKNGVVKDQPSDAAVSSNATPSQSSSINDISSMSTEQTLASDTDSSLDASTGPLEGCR
Mitogen-activated protein kinase 8, sequence (P45983 whole entry): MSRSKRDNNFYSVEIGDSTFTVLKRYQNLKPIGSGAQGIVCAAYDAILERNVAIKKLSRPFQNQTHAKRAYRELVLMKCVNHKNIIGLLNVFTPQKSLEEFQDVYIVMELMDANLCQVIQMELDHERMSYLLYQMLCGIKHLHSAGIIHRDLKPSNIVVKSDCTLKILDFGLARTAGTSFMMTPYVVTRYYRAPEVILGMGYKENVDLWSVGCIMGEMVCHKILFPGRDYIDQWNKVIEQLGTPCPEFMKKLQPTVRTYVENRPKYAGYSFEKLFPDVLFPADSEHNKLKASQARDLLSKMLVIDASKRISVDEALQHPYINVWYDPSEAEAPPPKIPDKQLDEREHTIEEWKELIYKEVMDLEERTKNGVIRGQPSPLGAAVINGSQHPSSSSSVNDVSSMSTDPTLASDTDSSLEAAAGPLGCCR
Casein kinase I isoform alpha, sequence (P48729 whole entry, canonical isoform): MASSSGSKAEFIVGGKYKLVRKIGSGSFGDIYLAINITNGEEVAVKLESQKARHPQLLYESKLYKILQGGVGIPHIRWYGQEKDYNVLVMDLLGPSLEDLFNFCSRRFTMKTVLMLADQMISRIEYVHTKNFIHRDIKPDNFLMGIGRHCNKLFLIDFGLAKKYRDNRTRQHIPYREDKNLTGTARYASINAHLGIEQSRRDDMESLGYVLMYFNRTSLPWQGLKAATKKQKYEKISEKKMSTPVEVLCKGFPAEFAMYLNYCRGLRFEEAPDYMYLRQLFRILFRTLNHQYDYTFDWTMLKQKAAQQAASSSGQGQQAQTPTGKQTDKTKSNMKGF
Casein kinase II subunit alpha, sequence (P68400 whole entry): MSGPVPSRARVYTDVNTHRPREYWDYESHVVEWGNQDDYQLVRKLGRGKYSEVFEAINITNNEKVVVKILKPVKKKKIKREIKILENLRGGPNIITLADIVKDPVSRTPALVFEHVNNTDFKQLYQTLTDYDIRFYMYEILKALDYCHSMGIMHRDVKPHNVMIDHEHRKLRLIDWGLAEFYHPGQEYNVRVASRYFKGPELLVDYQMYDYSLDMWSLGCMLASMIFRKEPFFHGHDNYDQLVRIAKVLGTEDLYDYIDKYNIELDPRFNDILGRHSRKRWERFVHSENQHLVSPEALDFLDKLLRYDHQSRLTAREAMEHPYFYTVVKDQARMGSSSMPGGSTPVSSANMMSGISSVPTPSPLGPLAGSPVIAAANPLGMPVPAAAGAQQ

SMILES: CC1CCC(c2nc(-c3ccc(F)cc3)c(-c3ccncc3)[nH]2)CC1 (stereo unspecified)
- pIC50 [1]: 5.89
- pIC50 [2]: 3.78
- IC50 (MAP kinase p38): <= 0.024 uM
- pIC50 [3]: 5.70
- pIC50 [4]: 6.40
- pIC50 [5]: < 4.00
- pIC50 [6]: 3.76
- pIC50 [7]: 4.41

SMILES: CNc1nccc(-c2nc(C3CCNCC3)[nH]c2-c2cccc(C(F)(F)F)c2)n1
- pIC50 [1]: 5.96
- pIC50 [2]: 3.39
- IC50 (MAP kinase p38): <= 0.028 uM
- pIC50 [3]: 3.59
- pIC50 [4]: 5.85
- pIC50 [5]: < 4.00
- pIC50 [6]: 3.41
- pIC50 [7]: 4.12
